In brackets after ≈: the same amount, converted by molar mass. Like-named read-outs stand apart in the source and are kept apart here.
Key:
Settings in all cases: Klebsiella pneumoniae
[1] = tested on: K. pneumoniae NVT1001 and its ΔompK35/36 and/or ΔramR mutants; test: Etest MIC, OmpK35/36 loss and AcrAB-TolC overexpression (ΔramR) strains (Table 6); format: cell-based, Klebsiella pneumoniae
Method in brief: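 Ceftazidime and cefotaxime were tested by CLSI broth microdilution on the blaOXA-48 pACYC177 transformant of NVT1001, using CLSI 2017 breakpoints. Parent, porin-deleted (ΔompK35/36) and ΔramR strains were tested by Etest, with values between two-fold dilutions rounded up.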

[2] = tested on: K. pneumoniae NVT1001 ΔramRΔompK35/36 mutant and its revertants; test: Etest MIC, ΔramRΔompK35/36 mutant and its revertants (Table 7); format: cell-based
[3] = tested on: K. pneumoniae NVT1001 strains with carbapenemase plasmids; test: Etest MIC of β-lactams, OmpK35/36 loss, ΔramR and/or carbapenemase (Table 9); format: cell-based, Klebsiella pneumoniae
Description: DNA fragments of the resistance genes along with their flanking regions were amplified from clinical plasmids via PCR with specific primer pairs. The resulting PCR fragments were digested and then cloned into the plasmid pACYC177 or pACYC184. The resulting plasmids were then transformed into K. pneumoniae strain NVT1001 via electroporation. The recombinant bacteria were plated onto LB agar plates containing kanamycin (50 mg/L) or chloramphenicol (50 mg/L), and the presence of the cloned gene was confirmed via PCR and DNA sequencing.
The MICs of antibiotics were determined using the Etest (Biodisk AB, Sweden) according to the manufacturer's instructions. The MICs from the Etest, which fall between standard two-fold dilutions, were rounded up to the next highest two-fold value. The MICs of ceftazidime and cefotaxime against K. pneumoniae NVT1001 harbouring the pACYC177 plasmid with blaOXA-48 were further determined using a broth microdilution test according to the recommendations of the CLSI,^25 and the results were interpreted according to the breakpoints established by the CLSI in 2017.^25 Meanwhile, due to the lack of CLSI breakpoints in 2016 and 2017, the results for cephalothin were interpreted according to the breakpoints established by the CLSI in 2015,^26 and the results for moxifloxacin were interpreted according to the breakpoints established by the EUCAST in 2017.^27

Structure (SMILES): CO/N=C(\C(=O)N[C@@H]1C(=O)N2C(C(=O)[O-])=C(C[N+]3(C)CCCC3)CS[C@H]12)c1csc(N)n1 [Cefepime]
- MIC ([1]; WT, NVT1001, read-out: MIC): 0.06 µg/mL (≈ 0.125 µM)
- MIC ([1]; Δ35, ΔompK35 mutant): 0.125 µg/mL (≈ 0.26 µM)
- MIC ([1]; Δ35/36, ΔompK35/36 mutant): 1 µg/mL (≈ 2.08 µM)
- MIC ([1]; Δ36, ΔompK36 mutant): 0.125 µg/mL (≈ 0.26 µM)
- MIC ([1]; ΔramR mutant): 0.5 µg/mL (≈ 1.04 µM)
- MIC ([1]; ΔramRΔ35, ΔramRΔompK35 mutant): 0.5 µg/mL (≈ 1.04 µM)
- MIC ([1]; ΔramRΔ35/36, ΔramRΔompK35/36 mutant): 2 µg/mL (≈ 4.16 µM)
- MIC ([1]; ΔramRΔ36, ΔramRΔompK36 mutant): 4 µg/mL (≈ 8.32 µM)
- MIC ([2]; ΔramRΔompK35/36::ompK35/36 revertant): 0.5 µg/mL
- MIC ([2]; ΔramRΔompK35/36::ompK35 revertant): 2 µg/mL
- MIC ([2]; ΔramRΔompK35/36::ompK36 revertant): 0.5 µg/mL
- MIC ([2]; ΔramRΔompK35/36::ramR revertant): 1 µg/mL
- MIC ([2]; ΔramRΔompK35/36::ramR::ompK35/36 revertant): 0.06 µg/mL
- MIC ([2]; ΔramRΔompK35/36::ramR::ompK35 revertant): 0.125 µg/mL
- MIC ([2]; ΔramRΔompK35/36::ramR::ompK36 revertant): 0.125 µg/mL
- MIC ([2]; ΔramRΔompK35/36 mutant): 2 µg/mL
- MIC ([3]; IMP-8 on pACYC177, WT (NVT1001), read-out: MIC): 16 µg/mL
- MIC ([3]; IMP-8 on pACYC177, Δ35 (ΔompK35 mutant)): 32 µg/mL
- MIC ([3]; IMP-8 on pACYC177, Δ35/36 (ΔompK35/36 mutant)): > 256 µg/mL
- MIC ([3]; IMP-8 on pACYC177, Δ36 (ΔompK36 mutant)): 64 µg/mL
- MIC ([3]; IMP-8 on pACYC177, ΔramR mutant): 32 µg/mL
- MIC ([3]; IMP-8 on pACYC177, ΔramRΔ35 (ΔramRΔompK35 mutant)): 64 µg/mL
- MIC ([3]; IMP-8 on pACYC177, ΔramRΔ35/36 (ΔramRΔompK35/36 mutant)): 128 µg/mL
- MIC ([3]; IMP-8 on pACYC177, ΔramRΔ36 (ΔramRΔompK36 mutant)): 128 µg/mL
- MIC ([3]; KPC-2 on pACYC177, WT (NVT1001), read-out: MIC): 64 µg/mL
- MIC ([3]; KPC-2 on pACYC177, Δ35 (ΔompK35 mutant)): 64 µg/mL
- MIC ([3]; KPC-2 on pACYC177, Δ35/36 (ΔompK35/36 mutant)): > 256 µg/mL
- MIC ([3]; KPC-2 on pACYC177, Δ36 (ΔompK36 mutant)): 64 µg/mL
- MIC ([3]; KPC-2 on pACYC177, ΔramR mutant): 64 µg/mL
- MIC ([3]; KPC-2 on pACYC177, ΔramRΔ35 (ΔramRΔompK35 mutant)): 64 µg/mL
- MIC ([3]; KPC-2 on pACYC177, ΔramRΔ35/36 (ΔramRΔompK35/36 mutant)): > 256 µg/mL
- MIC ([3]; KPC-2 on pACYC177, ΔramRΔ36 (ΔramRΔompK36 mutant)): > 256 µg/mL
- MIC ([3]; KPC-3 on pACYC177, WT (NVT1001), read-out: MIC): 128 µg/mL
- MIC ([3]; KPC-3 on pACYC177, Δ35 (ΔompK35 mutant)): 128 µg/mL
- MIC ([3]; KPC-3 on pACYC177, Δ35/36 (ΔompK35/36 mutant)): > 256 µg/mL
- MIC ([3]; KPC-3 on pACYC177, Δ36 (ΔompK36 mutant)): 256 µg/mL
- MIC ([3]; KPC-3 on pACYC177, ΔramR mutant): 128 µg/mL
- MIC ([3]; KPC-3 on pACYC177, ΔramRΔ35 (ΔramRΔompK35 mutant)): 128 µg/mL
- MIC ([3]; KPC-3 on pACYC177, ΔramRΔ35/36 (ΔramRΔompK35/36 mutant)): > 256 µg/mL
- MIC ([3]; KPC-3 on pACYC177, ΔramRΔ36 (ΔramRΔompK36 mutant)): > 256 µg/mL
- MIC ([3]; NDM-1 on pACYC177, WT (NVT1001), read-out: MIC): 32 µg/mL
- MIC ([3]; NDM-1 on pACYC177, Δ35 (ΔompK35 mutant)): 128 µg/mL
- MIC ([3]; NDM-1 on pACYC177, Δ35/36 (ΔompK35/36 mutant)): > 256 µg/mL
- MIC ([3]; NDM-1 on pACYC177, Δ36 (ΔompK36 mutant)): > 256 µg/mL
- MIC ([3]; NDM-1 on pACYC177, ΔramR mutant): > 256 µg/mL
- MIC ([3]; NDM-1 on pACYC177, ΔramRΔ35 (ΔramRΔompK35 mutant)): 256 µg/mL
- MIC ([3]; NDM-1 on pACYC177, ΔramRΔ35/36 (ΔramRΔompK35/36 mutant)): > 256 µg/mL
- MIC ([3]; NDM-1 on pACYC177, ΔramRΔ36 (ΔramRΔompK36 mutant)): > 256 µg/mL
- MIC ([3]; OXA-48 on pACYC177, WT (NVT1001), read-out: MIC): 0.5 µg/mL
- MIC ([3]; OXA-48 on pACYC177, Δ35 (ΔompK35 mutant)): 1 µg/mL
- MIC ([3]; OXA-48 on pACYC177, Δ35/36 (ΔompK35/36 mutant)): 8 µg/mL
- MIC ([3]; OXA-48 on pACYC177, Δ36 (ΔompK36 mutant)): 1 µg/mL
- MIC ([3]; OXA-48 on pACYC177, ΔramR mutant): 1 µg/mL
- MIC ([3]; OXA-48 on pACYC177, ΔramRΔ35 (ΔramRΔompK35 mutant)): 1 µg/mL
- MIC ([3]; OXA-48 on pACYC177, ΔramRΔ35/36 (ΔramRΔompK35/36 mutant)): 8 µg/mL
- MIC ([3]; OXA-48 on pACYC177, ΔramRΔ36 (ΔramRΔompK36 mutant)): 8 µg/mL
- MIC ([3]; VIM-1 on pACYC177, WT (NVT1001), read-out: MIC): 128 µg/mL
- MIC ([3]; VIM-1 on pACYC177, Δ35 (ΔompK35 mutant)): 256 µg/mL
- MIC ([3]; VIM-1 on pACYC177, Δ35/36 (ΔompK35/36 mutant)): > 256 µg/mL
- MIC ([3]; VIM-1 on pACYC177, Δ36 (ΔompK36 mutant)): > 256 µg/mL
- MIC ([3]; VIM-1 on pACYC177, ΔramR mutant): > 256 µg/mL
- MIC ([3]; VIM-1 on pACYC177, ΔramRΔ35 (ΔramRΔompK35 mutant)): > 256 µg/mL
- MIC ([3]; VIM-1 on pACYC177, ΔramRΔ35/36 (ΔramRΔompK35/36 mutant)): > 256 µg/mL
- MIC ([3]; VIM-1 on pACYC177, ΔramRΔ36 (ΔramRΔompK36 mutant)): > 256 µg/mL
- MIC ([3]; no supplemental plasmid, WT (NVT1001), read-out: MIC): 0.06 µg/mL
- MIC ([3]; no supplemental plasmid, Δ35 (ΔompK35 mutant)): 0.125 µg/mL
- MIC ([3]; no supplemental plasmid, Δ35/36 (ΔompK35/36 mutant)): 1 µg/mL
- MIC ([3]; no supplemental plasmid, Δ36 (ΔompK36 mutant)): 0.125 µg/mL
- MIC ([3]; no supplemental plasmid, ΔramR mutant): 0.5 µg/mL
- MIC ([3]; no supplemental plasmid, ΔramRΔ35 (ΔramRΔompK35 mutant)): 0.5 µg/mL
- MIC ([3]; no supplemental plasmid, ΔramRΔ35/36 (ΔramRΔompK35/36 mutant)): 2 µg/mL
- MIC ([3]; no supplemental plasmid, ΔramRΔ36 (ΔramRΔompK36 mutant)): 4 µg/mL
